Assay results published in paper PMC3546729, “Electrochemical Characterization of Escherichia coli Adaptive Response Protein AidB” (International Journal of Molecular Sciences, 2012).

What was measured:
[1] = biological target: T1, AidB (Escherichia coli, UniProt P33224); assay: UV-visible spectroscopy and redox potentiometry of bound flavin; format: binding; conditions: bound FAD of the purified protein; pH 8.0, 300 mM NaCl, anaerobic
T1 construct: predominantly tetramer in solution
T1 sequence (P33224 1-541): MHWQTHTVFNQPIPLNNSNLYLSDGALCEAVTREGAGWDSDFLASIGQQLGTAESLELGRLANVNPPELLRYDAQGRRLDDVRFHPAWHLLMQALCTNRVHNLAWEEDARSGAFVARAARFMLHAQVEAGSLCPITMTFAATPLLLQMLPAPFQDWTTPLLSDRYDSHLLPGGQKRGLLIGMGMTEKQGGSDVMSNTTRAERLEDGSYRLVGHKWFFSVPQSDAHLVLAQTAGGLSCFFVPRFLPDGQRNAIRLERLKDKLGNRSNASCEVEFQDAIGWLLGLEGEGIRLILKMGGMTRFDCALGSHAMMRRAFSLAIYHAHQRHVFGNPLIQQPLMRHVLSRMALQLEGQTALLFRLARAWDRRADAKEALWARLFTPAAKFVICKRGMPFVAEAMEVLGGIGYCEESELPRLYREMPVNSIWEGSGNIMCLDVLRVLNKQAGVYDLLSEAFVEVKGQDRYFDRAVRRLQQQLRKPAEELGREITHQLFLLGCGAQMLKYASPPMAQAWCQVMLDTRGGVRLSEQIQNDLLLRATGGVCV

[2] = biological target: T1, AidB; assay: shift of flavin midpoint reduction potential (xanthine/xanthine oxidase redox potentiometry), two-state binding fit; conditions: read-out: Kd^app

Kd [2] [µM] | Structure (SMILES) | UV-visible spectroscopy and redox potentiometry of bound flavin [1]
– | Cc1cc2nc3c(=O)[nH]c(=O)nc-3n(C[C@H](O)[C@H](O)[C@H](O)COP(=O)(O)OP(=O)(O)OC[C@H]3O[C@@H](n4cnc5c(N)ncnc54)[C@H](O)[C@@H]3O)c2cc1C [FAD] | Reduction potentials of the AidB FAD cofactor were measured using the xanthine/xanthine oxidase system
87 ± 27 | CC(C)CC(=O)SCCNC(=O)CCNC(=O)[C@H](O)C(C)(C)COP(=O)(O)OP(=O)(O)OC[C@H]1O[C@@H](n2cnc3c(N)ncnc32)[C@H](O)[C@@H]1OP(=O)(O)O [IVCoA] | –
